Measurements as given in patent publication US20240251801A1, “COMPOSITIONS AND METHODS FOR IMPROVING PLANT HEALTH AND CONTROLLING PLANT DISEASE” (AgBiome, Inc., priority 2021, published 2024).

Tests used:
Phakopsora pachyrhizi [1] = assay: Soybean leaf disc assay with wettable powder formulations, control of Asian soybean rust; assay type: in vivo; conditions: soybean leaf discs, 150 μL, azoxystrobin 0.25 ppm as control
Procedure: For the tray drying method, 829 grams of cell paste obtained from a liquid culture of ATP15329 was mixed with 18.24 g of glycerol and 72.95 g of microcel E using a food processor. Half of the cell paste was dried at 40° C. to a water activity of less than 0.30, at which time it contained 3.53E11 CFU/g. The other half was dried at 25° C. and 50% RH to a water activity of less than 0.6, at which time it contained 4.75E11 CFU/g. The dried powder formulation was stored in heat sealed mylar pouches at 4° C.
For the spray drying method, 200 grams of cell paste obtained from a liquid culture of ATP15329 was mixed with 22 g of skim milk powder using an emulsion blender. This material was spray dried at outlet temperature of 70° C., at which time it contained 7.86E10 CFU/g. The dried powder formulation was stored in heat sealed mylar pouches at 4° C.
This evaluation followed the protocol used in Example 5. Briefly, leaf disks were each sprayed with 150 μL of different formulations of the bacterial strain AIP015329, azoxystrobin (0.25 ppm) (fungicide control) on the abaxial surface with 150 μl using a fingertip sprayer (Container & Packaging Supply, Eagle, ID) fitted to a 15 mL conical centrifuge tube. Leaf disks were placed adaxial side down on saturated 20×20 cm filter paper in a plastic container (Blister Box 20×20 cm, Placon, Madison, WI); two filter papers were used per box. Boxes with leaf disks were incubated at room temperature in the dark, 24 hours later, leaf disks in the box were inoculated as described earlier. Inoculated and non-inoculated/not treated controls were added. After inoculation, boxes were maintained and incubated as described in the first-round evaluations.
Data recorded were numbers of uredinia in 1-cm diameter circle recorded 14 days after inoculation. […] Data were analyzed using analysis of variance (ANOVA) in PROC GLM of SAS (version 9.4; SAS Institute Inc., Cary, NC) and significant differences (P<0.05) were observed among treatments (Table 9).

Phakopsora pachyrhizi [2] = assay: Soybean leaf disk assay, control of Asian soybean rust; assay type: in vivo; conditions: soybean leaf disks, strain 1×10^8 CFU/mL, azoxystrobin 0.5 ppm
Procedure: For detached-leaf assays performed in the following examples, bacterial strains stored in a freezer (−80° C.) were each streaked onto Luria Bertani (LB) agar (25 g LB broth and 15 g agar per liter of deionized water) in an 8.5-cm diameter plastic plate. A single colony from the plate was picked and placed in 50 ml of either LB liquid broth or a liquid broth consisting of NaCl (5 g), tryptone (10 g), nutrient broth (8 g), CaCl2 (0.14 mM), MgCl2·6H2O (0.2 mM), and MnCl2·4H2O (0.01 mM) per liter of deionized water in a 250-ml flask. Calcium chloride (CaCl2), MgCl2, and MnCl2 were filtered sterilized using 0.22 μm vacuum filter and were then added to NaCl, tryptone, nutrient broth (which were autoclaved together). Cultures were harvested after 48 h by pelleting cells and re-suspending to original volume in sterile H2O. Colony forming units (CFU/mL) were determined using standard dilution plate count method, and plates were inspected for signs of contamination. Sterile distilled water was added to achieve a final concentration needed in detached-leaf or growth chamber strain evaluations.
The susceptible soybean cultivar Williams 82 was used in strain evaluation using the detached-leaf technique (Twizeyimana and Hartman, 2010). […]
Data recorded were numbers of uredinia in 1-cm diameter circle recorded 14 days after inoculation. […]

## CO/C=C(/C(=O)OC)c1ccccc1Oc1cc(Oc2ccccc2C#N)ncn1 [Azoxystrobin, azoxystrobin]
Phakopsora pachyrhizi [1]; spray dried formulation of the strain, 14 days after inoculation
  Disease Control (%) Spray dry: 100 (a) %
Phakopsora pachyrhizi [1]; tray dried formulation dried at 25° C.
  Disease Control (%) Tray dry Dried at 25° C.: 100 (a) %
Phakopsora pachyrhizi [1]; tray dried formulation dried at 40° C.
  Disease Control (%) Tray dry Dried at 40° C.: 100 (a) %
Phakopsora pachyrhizi [2]; confirmation
  Disease Control (%) Confirmation: 95.7 (a) %
Phakopsora pachyrhizi [2]; uredinia counted 14 days after inoculation
  Disease Control (%) Primary Screen: 99.8 (a) %
